Assay results: patent US20060100188A1, “Treatment methods” (priority 2004, published 2006)

Key:
[1] = system: A375 human melanoma cells (high MGMT level); test: Colony formation assay, A375 cells; assay type: cell-based; details: 4-day cycle
Description: (§1) As detailed below, DAOY human glioma cells (high MGMT level), A375 human melanoma cells (high MGMT level), and LOX human melanoma cells (low MGMT level) in in vitro colony formation assays were treated with different dosing schedules of TMZ. In brief, sub-confluent plates containing cells (DAOY, A375, or LOX) were trypsinized, then rinsed and suspended in appropriate culture medium before seeding in 6-well plates. Cells were incubated for 18-24 hours at 37° C. to allow cells to attach. Graded concentrations of TMZ or equivalent volumes of diluents were added in triplicate. Each pulse of TMZ lasted for 24 hours. For example, cells receiving continuous daily dosing of TMZ were treated with TMZ-containing medium every 24 hours throughout the cycle. Following the last pulse of TMZ in a cycle, TMZ-containing medium was removed and replaced with fresh medium without TMZ for the rest of the incubation period. Resulting colonies were stained with Crystal Violet solution and quantified using ImagePro plus software (Empire Imaging Systems, Inc. Asbury, N.J.).

[2] = system: LOX human melanoma cells (low MGMT level); test: Colony formation assay, LOX cells; assay type: cell-based
Description: as §1
In the 4-day cycle, illustrated in FIG. 3A, TMZ was administered according to one of two different dosing schedules: (i) continuous daily dosing (Day 1-4); or (ii) single pulse dosing (Day 1); where the total amount of TMZ administered was 0, 16, 31, 62, or 124 μg.
In the 8-day cycle, illustrated in FIG. 3B, TMZ was administered according to one of three different dosing schedules: (i) continuous daily dosing (Day 1-8); (ii) dosing for 2 consecutive days (Day 1-2); or (ii) intermittent dosing for 2 days (Day 1, Day 5); where the total amount of TMZ administered was 0, 31, 62, 124, or 248 μg.

[3] = system: DAOY human glioma xenograft tumors; test: DAOY human glioma xenograft tumor model; assay type: in vivo, nude mice; details: two 15-day cycles
Description: (§2) In brief, female athymic nude mice or female SCID mice (4-6 week old) from Charles River Laboratories were maintained in a VAF-barrier facility. Animal procedures were performed in accordance with the rules set forth in the N.I.H. guide for the care and use of laboratory animals.
(§3) DAOY human glioma cells (5×10^6), LOX human melanoma cells (5×10^5), and A375 human melanoma cells (5×10^6) were inoculated subcutaneously in the right flank of the animal (LOX in SCID mice; DAOY and A375 in nude mice). To facilitate in vivo growth, Matrigel was mixed with DAOY and A375 cells (50%) before inoculation. When tumor volumes were approximately 100 mm^3, animals were randomized and grouped (n=10). Tumor volumes and body weight were measured twice weekly using Labcat™ computer application (Innovative Programing Associates, N.J.). Tumor volumes were calculated by the formula (W×L×H)×π×⅙.
(§4) TMZ was administered by intraperitoneal injections with 20% HPβCD (containing 1% DMSO) as vehicle. Mice bearing xenograft tumors of DAOY human glioma cells, a high MGMT level cell line, were treated with one of three different dosing schedules. In a 15-day cycle, under same total dose levels, mice received one of the following TMZ treatments: (i) day 1 through day 15; (ii) day 1 through day 5; or (iii) intermittently on day 1, 4, 7, 10, and 13. For all dosing schedules, three different dose levels (180, 270, and 405 mg/kg total) were used.
FIG. 5A illustrates the mean tumor growth curves of DAOY human glioma xenograft tumors following TMZ treatment for two consecutive 15-day cycles of continuous daily dosing (Day 1-15 (first cycle), Day 16-30 (second cycle)); where the total dose of TMZ administered was 0, 360, 540, or 810 mg per kg (mpk). FIG. 5B illustrates the mean tumor growth curves of DAOY human glioma xenograft tumors following TMZ treatment for two consecutive 15-day cycles of dosing for 5 consecutive days (Day 1-5 (first cycle); Day 16-20 (second cycle)); where the total dose of TMZ administered was 0, 360, 540, or 810 mpk. FIG. 5C illustrates mean tumor growth curves of DAOY human glioma xenograft tumors following TMZ treatment for two consecutive 15-day cycles of intermittent dosing for 5 days (Day 1, 4, 7, 10, 13 (first cycle); Day 16, 19, 22, 25, 28 (second cycle)); where the total dose of TMZ administered was 0, 360, 540, or 810 mpk.

[4] = system: LOX human melanoma xenograft tumors; test: LOX human melanoma xenograft tumor model; assay type: in vivo, SCID mice; details: for % Inhibition compared to tumor treated with vehicle: 12-day cycle; for TGI: SCID mice, intermediate dose 72 mg/kg total
Description: as §2, §3, §4
Mice bearing xenograft tumors of LOX human melanoma cells, a low MGMT level cell line, were treated with TMZ using two different schedules. The same total dose was administered evenly divided over the course of either: (i) 4 or (ii) 12 days. TMZ was administered through intraperitoneal injection using cumulative total dose levels of 36, 72 or 144 mg/kg.
The efficacy of TMZ was schedule dependent, with greater efficacy seen when dosing for 4 consecutive days.

[5] = system: DAOY human glioma cells (high MGMT level); test: Colony formation assay, DAOY cells; assay type: cell-based; details: 4-day cycle
Description: as §1

[6] = system: A375 human melanoma xenograft tumors; test: A375 human melanoma xenograft tumor model; assay type: in vivo, nude mice; details: 15-day cycle
Description: as §2, §3, §4
as §4, with “Mice” for “TMZ was administered by intraperitoneal injections with 20% HPβCD (containing 1% DMSO) as vehicle. Mice”, “A375” for “DAOY”, “melanoma” for “glioma”, “with” for “with one of”, “Similar to the schedules used for the DAOY model, in” for “In”

Cn1nnc2c(C(N)=O)ncn2c1=O [TMZ, 3,4-dihydro-3-methyl-4-oxoimidazo[5,1-d]-as-tetrazine-8-carboxamide]
% Inhibition compared to untreated cells ([1]; continuous daily dosing Day 1-4 (¼ total TMZ/day), total TMZ 62 μg): 17.4%
% Inhibition compared to untreated cells ([1]; single pulse dosing Day 1, total TMZ 62 μg): 76%
% Inhibition compared to untreated cells ([1]; single pulse dosing Day 1, total TMZ 124 μg): 88%
% Inhibition compared to untreated cells ([1]; single pulse dosing Day 1, total TMZ 249 μg): 96%
% Inhibition compared to untreated cells ([2]; 4-day cycle, continuous daily dosing Day 1-4 (¼ total TMZ/day), total TMZ 16 μg): 7%
% Inhibition compared to untreated cells ([2]; 4-day cycle, single pulse dosing Day 1, total TMZ 16 μg): 66%
% Inhibition compared to untreated cells ([2]; 4-day cycle, single pulse dosing Day 1, total TMZ 31 μg): 87%
% Inhibition compared to untreated cells ([2]; 4-day cycle, single pulse dosing Day 1, total TMZ 62 μg): 84%
% Inhibition compared to untreated cells ([2]; 8-day cycle, continuous daily dosing Day 1-8 (⅛ total TMZ/day), total TMZ 31 μg): −5%
% Inhibition compared to untreated cells ([2]; 8-day cycle, dosing for 2 consecutive days Day 1, Day 2 (½ total TMZ/day), total TMZ 31 μg): 45%
% Inhibition compared to untreated cells ([2]; 8-day cycle, dosing for 2 consecutive days Day 1, Day 2 (½ total TMZ/day), total TMZ 62 μg): 92%
% Inhibition compared to untreated cells ([2]; 8-day cycle, dosing for 2 consecutive days Day 1, Day 2 (½ total TMZ/day), total TMZ 124 μg): 98%
% Inhibition compared to untreated cells ([2]; 8-day cycle, intermittent dosing for 2 days Day 1, Day 5 (½ total TMZ/day), total TMZ 31 μg): 78%
% Inhibition compared to untreated cells ([2]; 8-day cycle, intermittent dosing for 2 days Day 1, Day 5 (½ total TMZ/day), total TMZ 62 μg): 98%
% Inhibition compared to untreated cells ([2]; 8-day cycle, intermittent dosing for 2 days Day 1, Day 5 (½ total TMZ/day), total TMZ 124 μg): 99%
% Inhibition compared to tumor treated with vehicle ([3]; continuous dosing Day 1-30, 12 mpk per pulse, total 360 mpk, dose intensity 1, i.p.): 66%
% Inhibition compared to tumor treated with vehicle ([3]; dosing for 5 consecutive days Day 1-5, Day 16-20, 54 mpk per pulse, total 540 mpk, dose intensity 1.5, i.p.): 118%
% Inhibition compared to tumor treated with vehicle ([3]; dosing for 5 consecutive days Day 1-5, Day 16-20, 81 mpk per pulse, total 810 mpk, dose intensity 2.25, i.p.): 124%
% Inhibition compared to tumor treated with vehicle ([3]; intermittent dosing Day 1, 4, 7, 10, 13, 16, 19, 22, 25, 28, 54 mpk per pulse, total 540 mpk, dose intensity 1.5, i.p.): 85%
% Inhibition compared to tumor treated with vehicle ([3]; intermittent dosing Day 1, 4, 7, 10, 13, 16, 19, 22, 25, 28, 81 mpk per pulse, total 810 mpk, dose intensity 2.25, i.p.): 117%
% Inhibition compared to tumor treated with vehicle ([4]; continuous daily dosing Day 1-12, 3 mpk per pulse, total 36 mpk, dose intensity 1, i.p.): 37%
% Inhibition compared to tumor treated with vehicle ([4]; dosing for 4 consecutive days Day 1-4, 18 mpk per pulse, total 72 mpk, dose intensity 2, i.p.): 88%
% Inhibition compared to tumor treated with vehicle ([4]; dosing for 4 consecutive days Day 1-4, 36 mpk per pulse, total 144 mpk, dose intensity 4, i.p.): 94%
TGI ([4]; 4-day treatment schedule): 88%
TGI ([4]; 12-day schedule): 50%
% Inhibition compared to untreated cells ([5]; continuous daily dosing Day 1-4 (¼ total TMZ/day), total TMZ 93 μg): −8%
% Inhibition compared to untreated cells ([5]; single pulse dosing Day 1, total TMZ 93 μg): −37%
% Inhibition compared to untreated cells ([5]; single pulse dosing Day 1, total TMZ 186 μg): 20%
% Inhibition compared to untreated cells ([5]; single pulse dosing Day 1, total TMZ 373 μg): 75%
% Inhibition compared to tumor treated with vehicle ([6]; continuous daily dosing Day 1-15, 12 mpk per pulse, total 180 mpk, dose intensity 1, i.p.): 34%
% Inhibition compared to tumor treated with vehicle ([6]; dosing for 5 consecutive days Day 1-5, 54 mpk per pulse, total 270 mpk, dose intensity 1.5, i.p.): 29%
% Inhibition compared to tumor treated with vehicle ([6]; dosing for 5 consecutive days Day 1-5, 81 mpk per pulse, total 405 mpk, dose intensity 2.25, i.p.): 68%
% Inhibition compared to tumor treated with vehicle ([6]; intermittent dosing Day 1, 4, 7, 10, 13, 54 mpk per pulse, total 270 mpk, dose intensity 1.5, i.p.): 58%
% Inhibition compared to tumor treated with vehicle ([6]; intermittent dosing Day 1, 4, 7, 10, 13, 81 mpk per pulse, total 405 mpk, dose intensity 2.25, i.p.): 73%
